In the METLIN SMRT retention time set (Domingo-Almenara et al. 2019):

Test: gradient 5% acetonitrile 3 min, to 50% in 2 min, to 85% in 15 min, held 3 min, 100 µL/min
Conditions: column: Zorbax Extend-C18 2.1 x 50 mm; eluents: water / acetonitrile, 0.1% formic acid
In short: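 Retention times come from adduct peaks that were picked computationally and then checked by hand. The standards, pure and pooled in mixtures of ~100 molecules, were run on a Zorbax Extend-C18 column (2.1 × 50 mm, 1.8 μm) at 100 μL/min with water and acetonitrile, each with 0.1% formic acid. Detection was by quadrupole time-of-flight mass spectrometry in positive and negative ionization mode, with a dead volume of 40 μL and a dwell volume of 900 μL.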

| SMILES | RP-LC retention time [s] |
| --- | --- |
| CCOc1ccc(-c2cc3c(=O)n(Cc4nc(-c5ccccc5Cl)no4)ncn3n2)cc1 | 1150 |
| Cc1cc(C)c(-c2csc(Nc3ccc(F)cn3)n2)cc1C | 1210 |
| COC(=O)C(C)NC(=O)NC1CCN(C2=NS(=O)(=O)C(c3ccccc3)=C2C)CC1 (configuration not stated) | 718 |
| COCCNC(=O)C1(C)Cn2nc(-c3ccco3)cc2C(=O)N1c1ccc(OC)c(Cl)c1 (configuration not stated) | 776 |
| COc1cccc(OC)c1OCC(O)CN1CCN(c2ccccc2)CC1 (configuration not stated) | 668 |
| CCC(=O)N1CCc2cc(N3CC(C(=O)Nc4cccc(SC)c4)CC3=O)ccc21 (configuration not stated) | 789 |
| Cc1ccc(NC(=O)Cn2cccc2-c2nnc(C3CCC3)o2)cc1Cl | 1010 |
| O=C(O)c1cc(-c2ccco2)n(C2CCS(=O)(=O)C2)n1 (configuration not stated) | 604 |
| CCCC(=O)Nc1ccc2c(c1)CN(C(=O)c1ccc(F)c(F)c1)C(C(=O)N(C)C)C2 (configuration not stated) | 736 |
| Cc1cc(-n2nc(C)cc2C)n2nc(-c3ccc(Cl)cc3)c(C)c2n1 | 1170 |
| Cc1ccc(S(=O)(=O)N2CCc3c(c(-c4nnc(-c5ccc(F)cc5)o4)nn3C)C2)cc1C | 851 |
| Cc1ccn2cc(-c3ccc(NS(=O)(=O)c4cc(C(C)C)ccc4C)cc3)nc2n1 | 745 |
| Cn1c(=O)sc2cc(S(=O)(=O)N3CCC(C(=O)Nc4ccc(F)cc4)CC3)ccc21 | 854 |
| COc1cccc(NC(=O)C2CCN(S(=O)(=O)c3ccc4[nH]c(=O)sc4c3)CC2)c1 | 783 |
| COc1ccc(NC(=O)CCC2CCN(c3cc(NC4CC4)ncn3)CC2)cc1OC | 646 |
| O=C(NC1CCS(=O)(=O)C1)C1CCN(C(=O)C2CC(=O)N(c3ccc(F)cc3)C2)CC1 (configuration not stated) | 633 |
| Cc1ccc(-c2cc3c4nnc(SCC(=O)Nc5cccc(Cl)c5)n4ccn3n2)cc1C | 1060 |
| CNc1nc(Nc2ccccc2C)nc2ccccc12 | 664 |
| O=C(NCc1ccccn1)C1CCc2sc(C(=O)N3CCCC3)cc2C1 (configuration not stated) | 518 |
| Cn1nc(C2CCCNC2)n(Cc2ccccc2)c1=O (configuration not stated) | 556 |
| CN1C[C@@H]2C(=O)N(CCc3ccccc3)C(=O)[C@@H]2C1 | 605 |
| CCOC(=O)c1cc(S(=O)(=O)N2CCN(c3ccccn3)CC2)[nH]n1 | 598 |

| SMILES | RP-LC retention time [s] |
| --- | --- |
| Cn1nc(CO)c2c1CCN(C(=O)c1cc(-c3cccs3)[nH]n1)C2 | 602 |
| CC(=O)N1CCC(Cc2noc(C3CC3)n2)C1 (configuration not stated) | 625 |
| CC1CCN(c2ncc3c(n2)CCC(C(=O)NCc2nc4ccccc4n2C)C3)CC1 (configuration not stated) | 625 |
| CC(CNC(=O)c1cc2n(n1)CC(C)(C(=O)NC1CCCCC1)N(C)C2=O)c1ccccc1 (configuration not stated) | 795 |
| Cc1ccc(Cl)cc1S(=O)(=O)NCC(O)Cc1ccccc1 (configuration not stated) | 858 |
| CCCn1c(=O)c2c(nc3n2CCCCN3c2ccc(OCC)cc2)n(C)c1=O | 973 |
| NS(=O)(=O)c1ccc(NC(=O)Cc2cn(Cc3ccc(F)cc3)c3ccccc23)cc1 | 824 |
| Cc1cccc(Cn2c(CN3CCC(C(=O)NCCc4ccco4)CC3)cc3ccccc32)c1 | 800 |
| O=C(Cn1nc(-c2cccnc2)ccc1=O)Nc1nc2ccccc2[nH]1 | 528 |
| O=C(c1ccc[nH]1)N1CCN(C(=O)c2nnn3c2COC(c2ccc(Cl)cc2)C3)CC1 (configuration not stated) | 839 |
| O=C(c1ccccc1Cl)N1CCN(c2cc(-c3cccs3)[nH]n2)CC1 | 789 |
| O=c1ccc(-c2ccccc2F)nn1Cc1nc(-c2ccc3c(c2)OCO3)no1 | 944 |
| CC1(C)CC(=O)C2=C(C1)Nc1ccccc1N(CC(=O)NCc1ccncc1)C2c1ccco1 (configuration not stated) | 631 |
| CCC(CC)C(=O)Nc1ccc2nc(N3CCN(CC)CC3)cc(C)c2c1 | 593 |
| COc1ccccc1N1CCN(c2cc(SCC(=O)Nc3cccc(Cl)c3)ncn2)CC1 | 1030 |
| Cc1noc(C)c1CCNC(=O)c1ccc2nc(Cc3ccccc3)oc2c1 | 830 |
| CCOc1ccc(NC(=O)CSc2ccc(N3CCCC(C(=O)NC4CC4)C3)nn2)cc1 (configuration not stated) | 652 |
| O=C(NCc1ccc(N2CCCCC2)cc1)C1CCN(c2nnc3ccccn23)CC1 | 545 |
| Cc1cc2c(SCC(=O)N3CCCc4ccccc43)ncnc2s1 | 950 |
| COC(=O)N1CCc2ccc(F)cc2C1C(=O)NCc1cccnc1 (configuration not stated) | 554 |
| CC1(C(=O)Nc2cccc(F)c2)CCCCC(=O)N1 (configuration not stated) | 694 |
| CC1CN(c2ccc(Cl)cc2)c2nc3c(c(=O)n(CCN4CCOCC4)c(=O)n3C)n2C1 (configuration not stated) | 686 |

| SMILES | RP-LC retention time [s] |
| --- | --- |
| Cc1ccc(Nc2nc(C(=O)NCc3cccnc3)nc3ccccc23)cc1 | 609 |
| CC1=C(c2ccc(C)cc2)S(=O)(=O)N=C1N1CCCN(C(=O)NC2CCCCC2)CC1 | 890 |
| Cc1ccc(CNC(=O)C2(C)Oc3cccnc3N(C)C2=O)o1 (configuration not stated) | 740 |
| CCOC(=O)c1c(C)c(CCC(=O)NCCN2CCN(C)CC2)n(C)c1C | 596 |
| COc1cccc(C2CC(c3ccc(Cl)cc3)=NC3(CCN(C)CC3)N2)c1O (configuration not stated) | 606 |
| Cc1c(Cl)cccc1S(=O)(=O)N1CCc2c(c(-c3nnc(-c4ccccc4F)o3)nn2C)C1 | 1050 |
| CCN(Cc1ccc(C)cc1)Cc1cc(=O)n2ccc(C)cc2n1 | 628 |
| Cc1cc(=O)n(CC(=O)Nc2ccccc2C)c(N2CCCC2)n1 | 620 |
| COc1ccccc1-c1csc(-c2nnn(-c3cccc(Cl)c3)c2N)n1 | 1210 |
| COc1ccc(NC(=O)C2CC(=O)N(c3ccc4oc(C)nc4c3)C2)cc1Cl (configuration not stated) | 742 |
| Cc1ccc(-n2cc3c(N4CCCC(C(=O)NC5CCCCCC5)C4)ncnc3n2)cc1 (configuration not stated) | 762 |
| COCCCNC(=O)C1c2ccccc2CC(=O)N1Cc1ccccc1 (configuration not stated) | 789 |
| CN1CCCc2cc(C(CNC(=O)C(=O)Nc3ccc4c(c3)OCO4)N3CCCC3)ccc21 (configuration not stated) | 714 |
| CCOC(=O)c1ccccc1NC(=O)Cn1cnc2c(sc3nc(-c4ccccc4)ccc32)c1=O | 1200 |
| CCn1ccc(C(=O)Nc2cccc(OCc3nnc(-c4ccc(Cl)cc4)o3)c2)n1 | 961 |
| CCN(CC)S(=O)(=O)c1ccc2c(c1)CC(C(=O)NCCN1CCCC1)N2C(C)=O (configuration not stated) | 613 |
| Cc1ccc(N2C(=O)C3N=NN(Cc4nc(-c5ccccc5)no4)C3C2=O)cc1 (configuration not stated) | 975 |
| O=C(NC1CC1)c1nc(C(=O)N2CCC3(CC2)OCCO3)cs1 | 649 |
| Cc1ccc(-c2noc(Cn3cnc4c(cnn4-c4ccc(C(C)C)cc4)c3=O)n2)cc1C | 1330 |
| O=C(NCCCN1CCCC1=O)c1csc(N2CCN(c3ccc(Cl)cc3)CC2)n1 | 881 |
| Cn1ncc2c3ccccc3n(CCCC(=O)NC3CCN(Cc4ccccc4)CC3)c2c1=O | 655 |
| CCn1nccc1C(=O)N1CC(Oc2ccc(-c3nc(-c4ccccc4)no3)cc2)C1 | 1120 |

| SMILES | RP-LC retention time [s] |
| --- | --- |
| Cn1nc(C(=O)N2CCCCC2)c2c1CCN(C(=O)CCC(=O)NCC1CCCO1)C2 (configuration not stated) | 608 |
| O=C(NCc1cccc(C(F)(F)F)c1)c1cn2nc(Cl)ccc2n1 | 908 |
| CCS(=O)(=O)Nc1ccc(C2(C(=O)NC(C)c3ccccc3)CCCCC2)cc1 (configuration not stated) | 976 |
| CCOc1ccc(N2C(=O)C3N=NN(Cc4nc(-c5ccc(C)c(C)c5)no4)C3C2=O)cc1 (configuration not stated) | 1110 |
| COc1ccc(-c2noc(C3CCCN3C(=O)CNC(=O)c3cccs3)n2)cc1 (configuration not stated) | 788 |
| Cn1nc(C(=O)N2CCCC(C(=O)Nc3ccccc3)C2)c2c1CCN(C(=O)c1ccc(F)cc1)C2 (configuration not stated) | 756 |
| O=C(Nc1ccc2nc(N3CCC(N4CCCCC4)CC3)cc(C(=O)O)c2c1)c1cccc(Cl)c1 | 601 |
| Cc1nn2c(CNC(=O)c3ccccc3)c(-c3ccccc3)nc2s1 | 810 |
| Cc1cc(=O)n(CC(=O)Nc2ccccc2)c(N2CCc3ccccc3C2)n1 | 765 |
| Cn1nc(-c2nc(Cc3ccccc3)no2)c2c1CCN(C(=O)C(C)(C)C)C2 | 937 |
| Cc1ccc(NC(=O)N2CCCC2c2nc(-c3ccc(F)cc3F)no2)c(Cl)c1 (configuration not stated) | 1110 |
| COC(=O)C1=CN(c2ccc(F)cc2C)c2cc(F)ccc2S1(=O)=O | 895 |
| Cc1ccc(-c2ccc(=O)n(CCc3nc(-c4ccc(F)cc4)no3)n2)cc1C | 1100 |
| CC(=O)N1c2ccc(S(=O)(=O)N3CCCC3)cc2CC1C(=O)NCCCc1ccccc1 (configuration not stated) | 868 |
| CCOc1ccc(NC(=O)Cn2c(N)nc(CC)cc2=O)cc1 | 630 |
| CC(C)CCn1nc2ccc(S(=O)(=O)N3CCOCC3)cn2c1=O | 801 |
| Cc1nn2c(CNC(=O)c3cccc(Br)c3)c(C)nc2s1 | 662 |
| O=C(NCc1ccccc1)C1CCc2nc(N3CCOCC3)ncc2C1 (configuration not stated) | 696 |
| Cc1cc2nc(-c3ccccn3)c(-c3ccccn3)nc2cc1C | 797 |
| Cc1ccc(C)c(NC(=O)c2cc(C)nn2-c2ccccc2)c1 | 916 |
| CCOc1ccc(NC(=O)c2cc(S(=O)(=O)N3CCCC(C)C3)cn2C)cc1 (configuration not stated) | 1080 |
